Test results: article PMC7464201, “Synthesis and Cytotoxic Activity of Novel C-23-Modified Asiatic Acid Derivatives” (Molecules, 2020)
Where two headings read alike, the source gives them in different places.

Experiments:
HepG2 cells [1] = assay: MTT cytotoxicity assay, HepG2; format: cell-based; conditions: Homo sapiens, 72 h, mean ± SD of three independent experiments
Method: (§1) HCT116, SKOV-3, A549, A2780, HepG2, HL-60 and MCF-7 cells were incubated in DMEM with 10% heat-inactivated FBS in a humidified atmosphere of 5.0% CO2 at 37 °C. The in-vitro cytotoxicity of AA derivatives was determined using MTT assay. A 100-μL volume of culture medium at a concentration of 3 × 10^4 cell/mL was added to 96-well plate wells, which were maintained in a humidified atmosphere of 5.0% CO2 at 37 °C. After 24 h, 10 μL solution of AA derivatives and doxorubicin dissolved in DMSO and phophate buffered saline (PBS) and then diluted with DMEM under a concentration gradient, was added in the wells for final concentrations of 100, 10, 1, 0.1, 0.01, 0.001 μM of compounds in HCT116 and SKOV-3 cells and 125, 25, 5, 1, 0.2, 0.04 μM in A549, A2780, HepG2, HL-60 and MCF-7 cells. After 72 h incubation in a humidified atmosphere of 5.0% CO2 at 37 °C, 20 μl MTT solution (5 mg/mL) was added into each well and the cells were incubated. After 4 h, 100 μL HCl aqueous solution (0.01 M) with 10% SDS and 5% isobutanol was added into each well to dissolve the precipitated formazan and the absorbance was read at 570 nm on Thermo Scientific Varioskan Flash plate reader. All IC50 values were averaged from three independent experiments.

A549 cells [2] = assay: MTT cytotoxicity assay, A549; format: cell-based; conditions: Homo sapiens, 72 h, mean ± SD of three independent experiments
Method: as §1

HL-60 cells = assay: MTT cytotoxicity assay, HL-60; format: cell-based; conditions: Homo sapiens, 72 h, mean ± SD of three independent experiments
Method: as §1

MCF-7 cells [3] = assay: MTT cytotoxicity assay, MCF-7; format: cell-based; conditions: Homo sapiens, MCF7, 72 h, mean ± SD of three independent experiments
Method: as §1

A2780 cells [4] = assay: MTT cytotoxicity assay, A2780; format: cell-based; conditions: Homo sapiens, 72 h, mean ± SD of three independent experiments
Method: as §1

[5] = system: human normal cell line (HUVEC); assay: CCK-8 cytotoxicity assay, human normal cell line HUVEC; format: cell-based; conditions: for cytotoxic effect on HUVEC cell viability: CCK-8, concentrations of 125, 25, 5, 1, 0.2, 0.04 μM, 72 h; for IC50: HUVEC, CCK-8, 72 h, human normal cell line
Method: Additionally, the cytotoxic activities of compounds 10, 14j and 14k were evaluated against one human normal cell line (HUVEC) using CCK-8 assay (Table 3).
HUVEC cell lines were incubated in DMEM with 10% heat-inactivated FBS in a humidified atmosphere of 5.0% CO2 at 37 °C. The in-vitro cytotoxicity of AA derivatives was determined using CCK-8. A 100-μL volume of culture medium at a concentration of 3 × 10^4 cell/mL was added to 96-well plate wells, and these were maintained in a humidified atmosphere of 5.0% CO2 at 37 °C. After 24 h, 10 μL solution of AA derivatives dissolved in DMSO and PBS and then diluted with DMEM under a concentration gradient was added to the wells for final concentrations of 125, 25, 5, 1, 0.2, 0.04 μM. After 72 h incubation in a humidified atmosphere of 5.0% CO2 at 37 °C, 10 μl CCK-8 solution was added into each well and the cells were incubated for another 1 h, and the absorbance was read at 450 nm. All cell viability levels were averaged from three independent experiments.

[6] = system: human colon (HCT-116) cancer cell line; assay: MTT cytotoxicity assay, HCT116; format: cell-based; conditions: for IC50: Homo sapiens, HCT-116, MTT, 72 h, six concentrations, mean ± SD of three independent experiments
Method: (§2) To establish a SAR of the C-3 (R2) and C-23 (R1) of the AA derivatives, new compounds were subjected to MTT assays to evaluate their in-vitro antiproliferative activities against ovarian (SKOV-3) and colon (HCT-116) cancer cell lines, the IC50 values (the concentration that inhibits 50% of cell growth) of which are summarized in Table 1. Doxorubicin was used as the positive drug.
as §1

[7] = system: human ovarian (SKOV-3) cancer cell line; assay: MTT cytotoxicity assay, SKOV-3; format: cell-based; conditions: Homo sapiens, SK-OV-3; MTT, 72 h, six concentrations, mean ± SD of three independent experiments
Method: as §2, §1

A2780 cells [8] = system: A2780 cells; set-up: method as in PMID 30278332; conditions: literature value for AA; cited from earlier work
MCF-7 cells [9] = system: MCF-7 cells; set-up: method as in PMID 26974379; conditions: literature value for AA; cited from earlier work
A549 cells [10] = system: A549 cells; set-up: method as in PMID 31057738; conditions: literature value for AA; cited from earlier work
[11] = system: human normal cell line (HUVEC); set-up: method as in PMID 25151580; conditions: literature value for AA; cited from earlier work
HepG2 cells [12] = system: HepG2 cells; set-up: method as in PMID 31057738; conditions: literature value for AA; cited from earlier work
[13] = system: human ovarian cancer cells (A2780); set-up: method as in PMID 27416552, PMID 24268794; conditions: read-out: EC50 against human ovarian cancer cells (A2780); cited from earlier work

Structure (SMILES)	IC50 (HepG2 cells [1]) [µM]	IC50 (A549 cells [2]) [µM]	IC50 (HL-60 cells) [µM]	IC50 (MCF-7 cells [3]) [µM]	IC50 (A2780 cells [4]) [µM]	IC50 [6] [µM]	IC50 [7] [µM]	other results
CO[C@@H]1C[C@@]2(C)[C@@H](CC[C@]3(C)[C@@H]2CC=C2[C@@H]4[C@@H](C)[C@H](C)CC[C@]4(C(=O)NCc4ccccc4)CC[C@]23C)[C@](C)(C(=O)N2CCN(C)CC2)[C@H]1O [Compound 13k, α-Methoxy-3β-Hydroxy-Urs-12-Ene-28-Benzylamide-23-(4-Methyl-1-Piperazinyl)-Amide]	2.22 ± 0.68	5.7 ± 0.58	10.7 ± 2.08	2.85 ± 0.25	13 ± 1.18			
CO[C@@H]1C[C@@]2(C)[C@@H](CC[C@]3(C)[C@@H]2CC=C2[C@@H]4[C@@H](C)[C@H](C)CC[C@]4(C(=O)NCc4ccccc4)CC[C@]23C)[C@](C)(C(=O)N(C)C)[C@H]1OC(C)=O [Compound 14j, α-Methoxy-3β-Acetoxy-Urs-12-Ene-28-Benzyl Amide-23-Dimethylamide]	3.77 ± 1.22	6.72 ± 0.64	3.01 ± 0.44	5.89 ± 1.33	2.24 ± 0.52	1.83 ± 0.91		cytotoxic effect on HUVEC cell viability [5]: no cytotoxic effect; IC50 [5]: > 125 µM
C[C@H]1[C@H](C)CC[C@]2(C(=O)O)CC[C@]3(C)C(=CC[C@@H]4[C@@]5(C)C[C@@H](O)[C@H](O)[C@@](C)(CO)[C@@H]5CC[C@]43C)[C@H]12 [AA, 2α,3β,23-trihydroxyurs-12-ene-28-oic acid]						24.6 ± 3.26	20.5 ± 4.06	IC50 (A2780 cells [8]): 28.2 ± 0.3 µM; IC50 (MCF-7 cells [9]): 68.5 ± 2.5 µM; IC50 (A549 cells [10]): 41 ± 0.87 µM; IC50 [11]: > 100 µM; IC50 (HepG2 cells [12]): 35.4 ± 1.47 µM
CO[C@@H]1C[C@@]2(C)[C@@H](CC[C@]3(C)[C@@H]2CC=C2[C@@H]4[C@@H](C)[C@H](C)CC[C@]4(C(=O)NCc4ccccc4)CC[C@]23C)[C@](C)(C(=O)N2CCN(C)CC2)[C@H]1OC(C)=O [Compound 14k, α-Methoxy-3β-Acetoxy-Urs-12-Ene-28-Benzylamide-23-(4-Methyl-1-Piperazinyl)-Amide]	2.84 ± 0.46	4.04 ± 0.51	3.36 ± 0.66	1.78 ± 0.38	4.31 ± 0.58			cytotoxic effect on HUVEC cell viability [5]: no cytotoxic effect; IC50 [5]: > 125 µM
CO[C@@H]1C[C@]2(C)[C@H]3CC=C4[C@@H]5[C@@H](C)[C@H](C)CC[C@]5(C(=O)NCc5ccccc5)CC[C@@]4(C)[C@]3(C)CC[C@H]2[C@](C)(C=O)[C@H]1OC(C)=O [Compound 12, α-Methoxy-3β-Acetoxy-23-Oxo-Urs-12-Ene-28-Benzyl Amide]						6.69 ± 1.15	> 100	
CCOC(=O)CCCNC(=O)[C@@]1(C)[C@@H]2CC[C@]3(C)[C@H](CC=C4[C@@H]5[C@@H](C)[C@H](C)CC[C@]5(C(=O)NCc5ccccc5)CC[C@]43C)[C@@]2(C)C[C@@H](OC)[C@@H]1OC(C)=O [Compound 14i, N-(2α-Methoxy-3β-Acetoxy-Urs-12-Ene-28-Benzylamide-23-Oyl)-4-Aminobutyric Ethyl Ester]						> 100	> 100	
COC(=O)C(C)NC(=O)C1(C)C(O)C(OC)CC2(C)C1CCC1(C)C2CC=C2C3C(C)C(C)CCC3(C(=O)NCc3ccccc3)CCC21C [Compound 13f, N-(2α-Methoxy-3β-Hydroxy-Urs-12-Ene-28-Benzylamide-23-Oyl)-L-Alanine Methyl Ester]						4.35 ± 1.05	3.09 ± 1.54	
CO[C@@H]1C[C@@]2(C)[C@@H](CC[C@]3(C)[C@@H]2CC=C2[C@@H]4[C@@H](C)[C@H](C)CC[C@]4(C(=O)NCc4ccccc4)CC[C@]23C)[C@](C)(C(=O)NC(C)C)[C@H]1OC(C)=O [Compound 14d, α-Methoxy-3β-Acetoxy-Urs-12-Ene-28-Benzyl Amide-23-Isopropylamide]						> 100	> 100	
COC(=O)C(NC(=O)C1(C)C(OC(C)=O)C(OC)CC2(C)C1CCC1(C)C2CC=C2C3C(C)C(C)CCC3(C(=O)NCc3ccccc3)CCC21C)C(C)C [Compound 14g, N-(2α-Methoxy-3β-Acetoxy-Urs-12-Ene-28-Benzylamide-23-Oyl)-L-Valine Methyl Ester]						> 100	> 100	
CC(=O)O[C@@H]1C[C@]2(C)[C@H]3CC=C4[C@@H]5CC(C)(C)CC[C@]5(C(=O)NCc5ccccc5)CC[C@@]4(C)[C@]3(C)CC[C@H]2C(C)(C)[C@H]1OC(C)=O [EM2]								EC50 [13]: 0.5 µM
COC(=O)[C@@]1(C)[C@@H]2CC[C@]3(C)[C@H](CC=C4[C@@H]5[C@@H](C)[C@H](C)CC[C@]5(C(=O)NCc5ccccc5)CC[C@]43C)[C@@]2(C)C[C@@H](OC)[C@@H]1OC(C)=O [Compound 10, α-Methoxy-3β-Acetoxy-Urs-12-Ene-28-Benzylamide-23-Methyl Ester]	1.43 ± 0.32	> 125	0.47 ± 0.08	3.99 ± 1.21	1.28 ± 0.32	1.08 ± 0.66		cytotoxic effect on HUVEC cell viability [5]: no cytotoxic effect; IC50 [5]: > 125 µM; fold more active than AA against HCT116 cell line ([6]; relative to AA): 23 fold
CO[C@@H]1C[C@@]2(C)[C@@H](CC[C@]3(C)[C@@H]2CC=C2[C@@H]4[C@@H](C)[C@H](C)CC[C@]4(C(=O)NCc4ccccc4)CC[C@]23C)[C@](C)(C=O)C1=O [Compound 5, α-Methoxy-3,23-Dioxo-Urs-12-Ene-28-Benzylamide]						26 ± 6.68	> 100	
